One data set is described as follows: T1 relaxation in water. It is filed as physicochemical.
The nature of the next data set: T1 relaxation in plasma. The format is physicochemical.
The conditions of data set [1]: cited from earlier work.

The structures appear in SMILES notation.

On to `C[NH2+]C[C@H](O)[C@@H](O)[C@H](O)[C@H](O)CO.O=C([O-])CN(CCN(CC(=O)[O-])CC(=O)[O-])CCN(CC(=O)[O-])CC(=O)Nc1ccccc1.[Gd+3]` [Example 2, N-Methylglucamine Salt of the Gadolinium Complex of 3,6,9-Tris(carboxymethyl)-3,6,9-triazaundecanedioic Acid Phenyl Monoamide], for which the results for the T1 relaxation in the data set “T1 relaxation in water” and in “T1 relaxation in plasma” were 3.79 ± 0.16 mmol⁻¹ s⁻¹ and 5.45 ± 0.68 mmol⁻¹ s⁻¹, respectively.

Take `CNC[C@H](O)[C@@H](O)[C@H](O)[C@H](O)CO.CNC[C@H](O)[C@@H](O)[C@H](O)[C@H](O)CO.O=C([O-])CN(CCN(CC(=O)[O-])CC(=O)O)CCN(CC(=O)[O-])CC(=O)O.[Gd+3]` [MAGNEVIST]: in data set [1] (intravenous injection), the distribution entry is recorded as “extra-cellular”; the “passage of intact cell membranes and extrarenal excretion” value is given as “practically not at all observed”; the route of excretion entry is “excreted via the kidneys by glomerular secretion”. The “rate of excretion in renal insufficiency” value in data set [1] (patients with limited kidney function) is listed as “excreted only very slowly”.
